Measured values: US20230058189A1, “QUINOLIN-4-ONE AND 4(1H)-CINNOLINONE COMPOUNDS AND METHODS OF USING SAME” (Frequency Therapeutics, Inc., priority 2019, published 2023)
pIC50: −log10 of the molar value.

Tests used:
Foxo-1 = Foxo-1 (Homo sapiens, UniProt Q12778); details: from Molecular Pharmacology (2010), 78(5), 961-970; approximate values; read-out: Potency Foxo-1; cited from earlier work
[1] = test system: Lgr5+ cells (cochlear stem cells); assay: Lgr5+ assay: expansion of Lgr5-positive cochlear cells in 3D culture; assay type: cell-based, mouse
[2] = Thermodynamic aqueous solubility at pH 7.4; assay type: physicochemical; details: aqueous buffer, thermodynamic from solid, phosphate buffer pH 7.4, 25° C., approximate values, read-out: Concentration (thermodynamic aqueous solubility)
Description: The aqueous thermodynamic solubilities of the compounds of the present disclosure were measured at pH 7.4.
Determining suitability for use of a compound, e.g., as a therapeutic agent can include determining the thermodynamic solubility of the compound. An example of this determination follows: Accurately weigh about 1 mg of the powder of each compound into a glass insert vial and phosphate buffer into each vial of a capless Solubility Sample plate with the volume of 1 mL per mg. Next, add one stir stick to each vial and seal with a molded PTDE/SIL 96-Well Plate Cover. Transfer the Solubility Sample plate to an Eppendorf Thermomixer Comfort plate shaker and shake the plate at 25° C. at 1,100 rpm for 24 hours. At the end of the incubation, open the cover and remove the stir sticks using a big magnet and transfer the samples from the Solubility Sample plate into the filter plate. Using the vacuum manifold, all the samples were filtered. An aliquot of 100 μL was transferred from filtrate to a new 96-well plate by addition of 900 μL of a mixture of H2O and acetonitrile containing an internal standard (1:1) (10 fold) and 10 μL of the diluted solution was pipetted into a new 96-well plate by addition of 990 μL of a mixture of H2O and acetonitrile containing internal standard (1:1) (1,000 fold). The dilution factor may be changed according to the solubility value and the LC/MS signal response.
To prepare standards for the assay, accurately weigh about 1 mg of the powder of each compound into a glass insert vial, add DMSO into each vial of the Standard Plate with the volume of 1 mL per mg to obtain the 1 mg/mL STD sample. Aliquots of 10 μL were taken from 1 mg/mL STD sample to a new 96-well plate followed by addition of 990 μL of a mixture of H2O and acetonitrile containing internal standard (1:1) to obtain 10 μg/mL STD and then 10 μL aliquots were taken from 10 μg/mL sample to a new 96-well plate followed by addition of 990 μL of a mixture of H2O and acetonitrile containing internal standard (1:1) to obtain 0.1 μg/mL STD. The concentration of the standard sample may be changed according to the LC/MS signal response.
The samples were analyzed and quantified against the standard of known concentration using LC/MS/MS. The solubility of the test compound was calculated as follows: [Sample]=Area Ratio sample×DF sample×[STD]/Area Ratio STD DF means the dilution factor. Any value of the compounds that is not within the specified limits was rejected and the experiment was repeated.

[3] = in a background of growth factors, compared to CHIR-99021 and its combinations (figures)

Chain of Foxo-1 (Q12778 whole entry, species assumed): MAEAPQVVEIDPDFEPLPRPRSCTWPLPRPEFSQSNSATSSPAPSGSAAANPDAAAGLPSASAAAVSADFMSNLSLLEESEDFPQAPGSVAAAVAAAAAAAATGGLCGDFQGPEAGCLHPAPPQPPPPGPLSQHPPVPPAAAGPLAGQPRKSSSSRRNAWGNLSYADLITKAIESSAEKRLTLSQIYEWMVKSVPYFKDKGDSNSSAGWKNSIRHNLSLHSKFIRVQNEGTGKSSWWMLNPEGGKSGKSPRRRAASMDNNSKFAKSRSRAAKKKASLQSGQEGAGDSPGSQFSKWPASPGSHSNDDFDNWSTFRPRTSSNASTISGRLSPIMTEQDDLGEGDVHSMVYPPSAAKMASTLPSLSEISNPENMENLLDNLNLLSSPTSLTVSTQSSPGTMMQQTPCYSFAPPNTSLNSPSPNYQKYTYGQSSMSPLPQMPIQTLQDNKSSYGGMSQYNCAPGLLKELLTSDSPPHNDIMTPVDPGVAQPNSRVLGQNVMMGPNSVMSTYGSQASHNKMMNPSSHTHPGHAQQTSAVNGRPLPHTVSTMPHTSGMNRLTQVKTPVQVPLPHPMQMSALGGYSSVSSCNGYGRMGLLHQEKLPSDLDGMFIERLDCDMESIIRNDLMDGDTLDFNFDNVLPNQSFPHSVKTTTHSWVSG

CCn1cc(C(=O)O)c(=O)c2c(N)c(F)c(NC3CCCCC3)cc21 [Compound I-7]
pIC50 (Foxo-1): > 7.00 | % of Lgr5+ Positive Cells ([1]; 10 days culture with EGF, bFGF, IGF1, approximate values): 22% | Potency (Lgr5+ activity) ([1]; effective concentration for Lgr5+ expansion, 10 days culture with EGF, bFGF, IGF1, approximate values): 370 nM | Lgr5 GFP+ progenitor cell proliferation (Lgr5 positive cell count) [1, 3]: generate Lgr5 GFP+ progenitor cell proliferation | enrichment of Lgr5 GFP+ cochlear progenitor cells (percent of Lgr5 positive cells) [1, 3]: generates enrichment of Lgr5 GFP+ cochlear progenitor cells | solubility thermodynamic at 24 h [2]: < 0.12 µM
